Patent publication US4699981A, “Cephalosporin derivatives” (Taisho Pharmaceutical Co., Ltd., priority 1985, dated 1987)
≈ marks a conversion by molar mass, not a printed value. Counter-ions that a name gives are not always drawn. Like-named read-outs stand apart in the source and are kept apart here.

Legend:
[1] = test system: Enterobactor cloacae IFO 13525; test: Minimal inhibitory concentration, agar plate dilution method; assay type: cell-based
Method: (§1) The antibacterial activities of the compounds of the present invention against various bacteria (inoculum size : 10^6 cells/ml) were tested by the agar plate dilution method, and the results are shown in the following Table 1.

[2] = test system: Escherichia coli NIHJ JC-2; test: as above; assay type: cell-based; conditions: NIHJJC2
Method: as §1

[3] = test system: Serratia marcescens IID 618; test: as above; assay type: cell-based; conditions: IID618
Method: as §1

[4] = test system: Klebsiella pneumoniae T 25; test: as above; assay type: cell-based; conditions: T25
Method: as §1

[5] = test system: Pseudomonas aeruginosa NCTC 10490; test: as above; assay type: cell-based; conditions: NCTC10490
Method: as §1

[6] = Concentration of the compound in blood after oral administration to rats (bioassay); assay type: in vivo, Male wister rats; conditions: rat, 50 mg/kg
Method: Male wister rats (7 weeks old) were administered orally with the test compound, and the change of the concentration of the compound in blood was measured.
Dosage of the test compound: 50 mg/kg
Quantitative method: Bioassy
test bacterium: Escherichia coli SC507)

[7] = Enterobactor cloacae IFO 13525, inoculum size 10^6 cells/ml, read-out: MIC
[8] = Escherichia coli NIHJ JC-2, inoculum size 10^6 cells/ml, read-out: MIC
[9] = Serratia marcescens IID 618, inoculum size 10^6 cells/ml, read-out: MIC
[10] = Klebsiella pneumoniae T 25, inoculum size 10^6 cells/ml, read-out: MIC
[11] = Pseudomonas aeruginosa NCTC 10490, inoculum size 10^6 cells/ml, read-out: MIC

Row | MIC [1, 7] [µg/mL] | MIC [2, 8] [µg/mL] | MIC [3, 9] [µg/mL] | MIC [4, 10] [µg/mL] | MIC [5, 11] [µg/mL] | concentration at 1 h [6] [ng/mL] | concentration at 2 h [6] [ng/mL] | concentration at 4 h [6] [ng/mL] | SMILES | MIC [1] [µg/mL] | MIC ([2]; Escherichia coli) [µg/mL] | MIC ([3]; Serratia marcescens) [µg/mL] | MIC ([4]; Klebsiella pneumoniae) [µg/mL] | MIC ([5]; Pseudomonas aeruginosa) [µg/mL]
1 | 6.25 (≈ 10.9 µM) | 0.39 (≈ 0.682 µM) | 0.39 (≈ 0.682 µM) | 0.39 (≈ 0.682 µM) | 12.5 (≈ 21.9 µM) |  |  |  | CC(C)OC(=O)/C=C\SC1=C(C(=O)O)N2C(=O)[C@@H](NC(=O)/C(=N\OCC(=O)O)c3csc(N)n3)[C@H]2SC1 [C] |  |  |  |  | 
2 | 12.5 (≈ 22.4 µM) | 0.2 (≈ 0.359 µM) | 0.39 (≈ 0.699 µM) | 0.39 (≈ 0.699 µM) | 3.13 (≈ 5.61 µM) | 34000 | 37100 | 31000 | CCOC(=O)/C=C\SC1=C(C(=O)O)N2C(=O)[C@@H](NC(=O)/C(=N\OCC(=O)O)c3csc(N)n3)[C@H]2SC1 [B] |  |  |  |  | 

More lines, now with the values behind:

Row | SMILES | MIC [1, 7] [µg/mL] | MIC [2, 8] [µg/mL] | MIC [3, 9] [µg/mL] | MIC [4, 10] [µg/mL] | MIC [5, 11] [µg/mL] | concentration at 1 h [6] [ng/mL] | concentration at 2 h [6] [ng/mL] | concentration at 4 h [6] [ng/mL] | MIC [1] [µg/mL] | MIC ([2]; Escherichia coli) [µg/mL] | MIC ([3]; Serratia marcescens) [µg/mL] | MIC ([4]; Klebsiella pneumoniae) [µg/mL] | MIC ([5]; Pseudomonas aeruginosa) [µg/mL]
3 | COC(=O)/C=C\SC1=C(C(=O)O)N2C(=O)[C@@H](NC(=O)/C(=N\OCC(=O)O)c3csc(N)n3)[C@H]2SC1 [A, 7β-{α-(2-aminothiazole-4-yl)-β-[(Z)-carboxymethoxyimino]acetamido)}-3[(Z)-2-methoxycarbonylvinylthio]-3-cephem-4-carboxylic acid sodium salt] | 25 | 0.2 | 1.56 | 0.39 | 25 | 37800 | 38900 | 32500 |  |  |  |  | 
4 | CC1=C(C(=O)O)N2C(=O)[C@@H](NC(=O)[C@H](N)c3ccccc3)[C@H]2SC1 [YY, Cefalexin, reference compound] |  |  |  |  |  |  |  |  | > 100 | 12.5 (≈ 36 µM) | > 100 | 100 (≈ 288 µM) | > 100
5 | C=CCOC(=O)/C=C\SC1=C(C(=O)[O-])N2C(=O)[C@@H](NC(=O)/C(=N\OCC(=O)[O-])c3csc(N)n3)[C@H]2SC1.[Na+].[Na+] [D, 7β-{α-(2-aminothiazole-4-yl)-α-[(Z)-carboxymethoxyimino]acetamido}-3-[(Z)-2-allyloxycarbonylvinylthio]-3-cephem-4-carboxylic acid sodium salt] |  |  |  |  |  |  |  |  | 12.5 | 0.39 | 0.39 | 0.39 | 6.25
